Data: ChEMBL document CHEMBL5143723, “Orally Bioavailable Enzymatic Inhibitor of CD38, MK-0159, Protects against Ischemia/Reperfusion Injury in the Murine Heart” (J Med Chem, 2022)

Columns and labels:
[1] = molecular target: T1, ADP-ribosyl cyclase/cyclic ADP-ribose hydrolase 1 (Homo sapiens, UniProt P28907)
T1 sequence (P28907 whole entry): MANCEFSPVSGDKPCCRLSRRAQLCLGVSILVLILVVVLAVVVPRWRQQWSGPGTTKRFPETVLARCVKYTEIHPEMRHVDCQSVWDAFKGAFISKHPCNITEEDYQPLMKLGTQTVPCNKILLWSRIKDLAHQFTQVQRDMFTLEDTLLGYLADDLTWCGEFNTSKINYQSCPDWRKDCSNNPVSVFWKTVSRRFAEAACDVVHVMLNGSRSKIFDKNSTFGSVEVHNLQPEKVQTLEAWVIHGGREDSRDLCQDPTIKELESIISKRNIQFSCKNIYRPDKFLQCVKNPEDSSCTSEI
Description: Inhibition of human his tagged CD38 using N6-etheno-NAD as substrate by fluorescence microplate reader assay

[2] = Drug exposure in mouse plasma assessed as AUC of drug at 3 mg/kg, po; format: ADME, organism-based; design: dose 3 mg/kg, route po

| Structure (SMILES) | IC50 [1] [µM] | AUC [2] [ng·h/mL] |
| --- | --- | --- |
| COCCO[C@H]1CC[C@H](NC(=O)c2cc(-c3ccccn3)cc3cc[nH]c23)CC1 | > 100 |  |
| COCCO[C@H]1CC[C@H](NC(=O)c2cc(-n3ccnc3)cc3cn[nH]c23)CC1 |  | 207 |
| COCCO[C@H]1CC[C@H](NC(=O)c2cc(-c3cscn3)cc3cc[nH]c23)CC1 | > 100 |  |

The next lines start with the values.

| IC50 [1] [µM] | AUC [2] [ng·h/mL] | Structure (SMILES) |
| --- | --- | --- |
| 6 |  | COCCO[C@H]1CC[C@H](CNC(=O)c2cc(-c3cncs3)cc3[nH]ccc23)CC1 |
| > 100 |  | COCCO[C@H]1CC[C@H](NC(=O)c2cc(-c3cncs3)cn3cnnc23)CC1 |
|  | 6980 | COCCO[C@H]1CC[C@H](NC(=O)c2cc(-c3cncs3)cc3[nH]ccc23)CC1 |
| > 100 |  | COCCO[C@H]1CC[C@H](NC(=O)c2cc(-c3cncs3)cn3ccnc23)CC1 |
|  | 75 | COCCO[C@H]1CC[C@H](NC(=O)c2cc(-c3cncs3)cc3[nH]cc(C#N)c23)CC1 |
